Data published in PubChem BioAssay AID1259408 (Genetic Toxicology Data Bank (GENE-TOX), 2018).
Active and inactive are the calls of the source. No rule for the calls is given here.

Tested on: GENE-TOX genotoxicity assays, various organisms and cells
Experiment: GENE-TOX mutagenicity studies
Settings: for call: Assay Type: In vivo carcinogenicity studies
[1] = Species/Cell Type: Human lymphocytes, Assay Type: Sister-chromatid exchange (SCE) in vitro, Assay Code: SCL+D, Dose Response: With dose response, Evaluation Type: Evaluation B (Post-1980)
[2] = Species/Cell Type: Human, Assay Type: Sister-chromatid exchange (SCE) in vitro, Assay Code: SC1+D, Dose Response: With dose response, Evaluation Type: Evaluation B (Post-1980)
[3] = Species/Cell Type: Nonhuman, Assay Type: Sister-chromatid exchange (SCE) in vitro, Assay Code: SC2+D, Dose Response: With dose response, Evaluation Type: Evaluation B (Post-1980)
[4] = Species/Cell Type: Saccharomyces cerevisiae, Assay Type: Mitotic recombination or gene conversion, Assay Code: YEC+, Evaluation Type: Evaluation A (Pre-1980)
[5] = Species/Cell Type: Nonhuman, Assay Code: CCG+, Evaluation Type: Evaluation A (Pre-1980)
[6] = Species/Cell Type: Escherichia coli WP2, Assay Type: Tryptophan reverse gene mutation, Assay Code: WP2-, Evaluation Type: Evaluation A (Pre-1980)
[7] = Species/Cell Type: Salmonella typhimurium (one or more of the five standard strains: TA98, TA100, TA1535, TA1537, and TA1538), Assay Type: Histidine reverse gene mutation, Ames assay, Assay Code: SAL+, Evaluation Type: Evaluation A (Pre-1980)

## CCS(=O)CCSP(=O)(OC)OC (configuration not stated)
Species/Cell Type: Drosophila melanogaster, Assay Type: Sex-linked recessive lethal gene mutation, Assay Code: SRLT, Evaluation Type: Evaluation A (Pre-1980)
  mutagenic call: no conclusion
[1]
  mutagenic call: active; positive
[2]
  mutagenic call: active; positive
Species/Cell Type: Mammalian polychromatic erythrocytes, Assay Type: Micronucleus test, chromosome aberrations, Assay Code: MNT+, Evaluation Type: Evaluation B (Post-1980)
  mutagenic call: active; positive
[3]
  mutagenic call: active; positive
[4]
  mutagenic call: active; positive

## Cc1c2ccccc2c(C)c2c1ccc1c(O)cccc12
Species/Cell Type: Chinese hamster lung (V79) cells, Assay Type: Forward gene mutation at the HPRT or ouabain locus, Assay Code: V79-*, Activation: With metabolic activation, Evaluation Type: Evaluation A (Pre-1980)
  mutagenic call: inactive; negative
Species/Cell Type: Nonhuman, Assay Code: CCGT, Evaluation Type: Evaluation A (Pre-1980)
  call: no conclusion

## O=[N+]([O-])c1ccc(C2CO2)cc1 (configuration not stated)
[1]
  mutagenic call: active; positive
[2]
  mutagenic call: active; positive

## O[C@@H]1[C@@H]2O[C@@H]2c2cc3ccc4cccc5ccc(c2[C@H]1O)c3c45
Species/Cell Type: Chinese hamster lung (V79) cells, Assay Type: Forward gene mutation at the HPRT or ouabain locus, Assay Code: V79+, Evaluation Type: Evaluation A (Pre-1980)
  mutagenic call: active; positive
[3]
  mutagenic call: active; positive

## CCCCCOC(=O)COc1cc(Cl)c(Cl)cc1Cl
Species/Cell Type: Saccharomyces cerevisiae, Assay Type: Mitotic recombination or gene conversion, Assay Code: YEC-, Evaluation Type: Evaluation A (Pre-1980)
  mutagenic call: inactive; negative

## COc1ccc(OC)c(N=Nc2c(O)ccc3ccccc23)c1
[5]
  call: active; positive
Species/Cell Type: Salmonella typhimurium (one or more of the five standard strains: TA98, TA100, TA1535, TA1537, and TA1538), Assay Type: Histidine reverse gene mutation, Ames assay, Assay Code: SAL-, Evaluation Type: Evaluation A (Pre-1980)
  mutagenic call: inactive; negative

## Oc1ccc(Cl)cc1Cl
Species/Cell Type: Salmonella typhimurium (one or more of the five standard strains: TA98, TA100, TA1535, TA1537, and TA1538), Assay Type: Histidine reverse gene mutation, Ames assay, Assay Code: SALT, Evaluation Type: Evaluation A (Pre-1980)
  mutagenic call: no conclusion

## O=Nc1ccc2ccc3cccc4ccc1c2c34
Species/Cell Type: Chinese hamster ovary (CHO) cells, Assay Type: Forward gene mutation at the HPRT locus, Assay Code: CHO+, Evaluation Type: Evaluation B (Post-1980)
  mutagenic call: active; positive

## NCCNc1cccc2ccccc12
Species/Cell Type: Nonhuman, Assay Code: CCG-, Evaluation Type: Evaluation A (Pre-1980)
  call: inactive; negative

## O=NN(CCCl)C(=O)NCCCCCCNC(=O)N(CCCl)N=O
Species/Cell Type: Drosophila melanogaster, Assay Type: Sex-linked recessive lethal gene mutation, Assay Code: SRL+, Evaluation Type: Evaluation A (Pre-1980)
  mutagenic call: active; positive
[4]
  mutagenic call: active; positive

## COC(=O)Nc1ncc(-c2ccc(Br)cc2)[nH]1
Species/Cell Type: Salmonella typhimurium, Assay Type: Forward and reverse gene mutation, host-mediated assay, Assay Code: HMAT, Evaluation Type: Evaluation A (Pre-1980)
  mutagenic call: no conclusion

## O=C(O)c1ccc([N+](=O)[O-])o1
Species/Cell Type: Bacillus subtilis (H17 vs M45T), Assay Type: Rec-assay, spot test, DNA effects (bacterial DNA repair), Assay Code: REX-, Evaluation Type: Evaluation A (Pre-1980)
  mutagenic call: inactive; negative
[6]
  mutagenic call: inactive; negative
Species/Cell Type: Escherichia coli WP2 UVRA, Assay Type: Tryptophan reverse gene mutation, Assay Code: WPU-, Evaluation Type: Evaluation A (Pre-1980)
  mutagenic call: inactive; negative
[7]
  mutagenic call: active; positive

## Nc1ccc2nc[nH]c2c1
Species/Cell Type: Aspergillus nidulans, Assay Type: Aneuploidy, chromosome aberrations, Assay Code: ASN-, Evaluation Type: Evaluation A (Pre-1980)
  mutagenic call: inactive; negative

## CN1CCN(CCCN2c3ccccc3Sc3ccc(S(=O)(=O)N(C)C)cc32)CC1
Species/Cell Type: Rodents, Sex: Male, Assay Type: Dominant lethal test, Assay Code: DLT-, Evaluation Type: Evaluation A (Pre-1980)
  mutagenic call: inactive; negative

## O=P(O)(O)Oc1c(Br)cc(Br)cc1-c1cc(Br)cc(Br)c1O
Species/Cell Type: Mammalian polychromatic erythrocytes, Assay Type: Micronucleus test, chromosome aberrations, Assay Code: MNTT, Evaluation Type: Evaluation B (Post-1980)
  mutagenic call: no conclusion

## ClC(Cl)=C(Cl)Cl
Species/Cell Type: Fischer rat embryo (RLV/1706) cells, Assay Type: Cell transformation, viral enhanced, Assay Code: CTR+, Evaluation Type: Evaluation A (Pre-1980)
  mutagenic call: active; positive
Species/Cell Type: Nonhuman, Assay Code: CCG+L, Evaluation Type: Evaluation A (Pre-1980)
  call: active; positive
[4]
  mutagenic call: active; positive
Species/Cell Type: Saccharomyces cerevisiae, Assay Type: Mitotic recombination or gene conversion, Assay Code: YEH+, Evaluation Type: Evaluation A (Pre-1980)
  mutagenic call: active; positive
Species/Cell Type: Saccharomyces cerevisiae, Assay Type: Reverse gene mutation, Assay Code: YER+, Evaluation Type: Evaluation A (Pre-1980)
  mutagenic call: active; positive
Species/Cell Type: Syrian hamster embryo (SA7/SHE) cells, Assay Type: Cell transformation, viral enhanced, Assay Code: CT7-, Evaluation Type: Evaluation A (Pre-1980)
  mutagenic call: inactive; negative

## NC1C(O)[C@@H](O)C(CO)O[C@@H]1O (some centres not stated)
[6]
  mutagenic call: inactive; negative

## CCOc1ccc(CC(=O)OC)cc1CSC(=N)N
Species/Cell Type: Saccharomyces cerevisiae, Assay Type: Reverse gene mutation, Assay Code: YERT, Evaluation Type: Evaluation A (Pre-1980)
  mutagenic call: no conclusion

## CN(CCCC(=O)c1cccnc1)N=O
Species/Cell Type: Rat primary hepatocytes, Assay Type: Unscheduled DNA synthesis (UDS) in vitro, DNA effects, Assay Code: UDP+D, Dose Response: With dose response, Evaluation Type: Evaluation A (Pre-1980)
  mutagenic call: active; positive

## CC(Cl)CCl (configuration not stated)
[7]
  mutagenic call: active; positive

## c1ccc2c(c1)ccc1[nH]c3ccc4ccccc4c3c12
[5]
  call: active; positive

## NC(=O)N(CCC[C@H](N)C(=O)O)N=O
[7]
  mutagenic call: active; positive

## CC(CN(C)C)CN1c2ccccc2CCc2ccccc21 (configuration not stated)
Species/Cell Type: Human, Sex: Male, Assay Type: Sperm morphology, Assay Code: SPHT, Evaluation Type: Evaluation A (Pre-1980)
  mutagenic call: no conclusion

## O=C1c2cc(O)ccc2-c2ccc(O)c3cccc1c23
Species/Cell Type: Salmonella typhimurium (one or more of the five standard strains: TA98, TA100, TA1535, TA1537, and TA1538), Assay Type: Histidine reverse gene mutation, Ames assay, Assay Code: SAL+*, Activation: With metabolic activation, Evaluation Type: Evaluation A (Pre-1980)
  mutagenic call: active; positive
